These compounds were tested against Thymidine kinase (Human herpesvirus 2) (assay: Inhibition of TdR phosphorylation using thymidine kinase (TK) assay for herpes simplex virus type 2 (HSV-2).).
`O=c1[nH]c(NCCCCCO)nc2nc[nH]c12` gave an IC50 of 40 µM. In the case of `O=c1[nH]c(Nc2ccc3ccccc3c2)nc2nc[nH]c12`, the IC50 is reported as 10 µM. `O=c1[nH]c(Nc2ccc(C(F)(F)F)cc2)nc2nc[nH]c12` was tested, and the IC50 was 40 µM. `O=c1[nH]c(NCc2ccc(Cl)cc2)nc2nc[nH]c12` was tested, and the IC50 was 5.5 µM. For `O=c1[nH]c(Nc2cccc(CO)c2)nc2nc[nH]c12`, the IC50 was 20 µM. In the case of `O=c1[nH]c(Nc2ccc(O)cc2)nc2nc[nH]c12`, the IC50 is reported as 20 µM. `O=c1[nH]c(Nc2ccc(Br)cc2)nc2nc[nH]c12` gave an IC50 of 0.6 µM. `O=c1[nH]c(Nc2ccc(F)c(Cl)c2)nc2nc[nH]c12` gave an IC50 of 2.5 µM. `O=c1[nH]c(Nc2ccc(Br)c(Br)c2)nc2nc[nH]c12` gave an IC50 of 1.3 µM. In the case of `Cc1ccc(Nc2nc3nc[nH]c3c(=O)[nH]2)cc1`, the IC50 is reported as 6 µM. In the case of `O=c1[nH]c(Nc2ccc(F)c(F)c2)nc2nc[nH]c12`, the IC50 is reported as 2.2 µM. `O=c1[nH]c(Nc2cccc(Cl)c2)nc2nc[nH]c12` showed an IC50 of 0.35 µM. Work on `CCc1cccc(Nc2nc3nc[nH]c3c(=O)[nH]2)c1` yielded an IC50 of 4 µM. In the case of `O=c1[nH]c(Nc2cccc(C(F)(F)F)c2)nc2nc[nH]c12` [2-(3-Trifluoromethyl-phenylamino)-1,9-dihydro-purin-6-one], the IC50 is reported as 0.1 µM. `CCCCCCNc1nc2nc[nH]c2c(=O)[nH]1` [2-Hexylamino-1,9-dihydro-purin-6-one] was tested, and the IC50 was 10 µM.

Target: Thymidine kinase (Human herpesvirus 2)
Experiment: as above
Remark: another data set of the same source
In the case of `CCCCCCNC1=NC(=O)C2N=CN([C@H]3C[C@H](O)[C@@H](CO)O3)C2=N1` (stereo partly specified), the Ki is reported as 2 µM.

From BindingDB's records for doi:10.1021/jm00163a033 (University of Massachusetts Medical School, 1990)
